The conditions of data set [1]: early Phase I; cited from earlier work.
Another data set relates to human xenograft models. As to conditions: dosed orally; cited from earlier work.
The next data set relates to CYP450. The conditions noted are these: cited from earlier work.
The conditions of data set [2]: in vivo; cited from earlier work.
The subject of data set [3] is HER2. The data set is described as follows: HER2 activation in HGF-treated A431 cells (proximity assay). As to conditions: A431 epidermoid carcinoma cells, FIG. 3. Type of data set: cell-based. Here is the method:
(§1) The slide was incubated for two hours at room temperature. • 4) After six washes with TBS-Tween, 80 μl of detection antibodies for the proximity assay diluted in TBS-Tween/2% BSA/1% FBS was added to the slides. The incubation was for 2 hours at room temperature. • a) As a non-limiting example, the detection antibodies can comprise the following: (i) an anti-c-Met monoclonal antibody that is directly conjugated to glucose oxidase (GO); and (ii) a monoclonal antibody recognizing phosphorylated c-Met that is directly conjugated to horseradish peroxidase (HRP). • b) Alternatively, the detection step can utilize a biotin-conjugate of the monoclonal antibody recognizing phosphorylated c-Met. In these instances, after six washes, an additional sequential step of incubation with streptavidin-HRP for 1 hour is included. • c) Alternatively, the detection step can utilize an oligonucleotide-mediated glucose oxidase (GO) conjugate of the anti-c-Met antibody. […]
(§2) The multiplexed protein microarray platform described herein utilizes the formation of a unique immuno-complex requiring the co-localization of two detector enzyme-conjugated-antibodies once target proteins are captured on the microarray surface. […] The detection and quantification of as few as ˜2-3×10^4 phosphorylation events is routinely achieved by this method, bringing its detection to a “single” cell level. […]

The test system of data set [4] is HER2. The data set is described as follows: HER2 activation in HGF-treated HCC827 cells (proximity assay). Type of data set: cell-based. The conditions noted are these: HCC827 lung cancer cells, FIG. 4. The text has this: (§3) The multiplexed protein microarray platform described herein utilizes the formation of a unique immuno-complex requiring the co-localization of two detector enzyme-conjugated-antibodies once target proteins are captured on the microarray surface. The channeling events between two detector enzymes (glucose oxidase (GO) and horseradish peroxidase (HRP)) in proximity enables the profiling of a receptor tyrosine kinase (RTK) such as c-Met with extreme sensitivity. […] In particular, the multiplexed proximity assay is based on (1) a multiplexed protein microarray platform combined with (2) a triple-antibody-enzyme channeling signal amplification process. The unique and novel design is provided by the triple-antibody enzyme approach that confers ultra-high sensitivity while preserving specificity: • (1) The selected target is captured by target-specific antibodies printed in serial dilutions on a microarray surface. […] The detection and quantification of as few as ˜2-3×10^4 phosphorylation events is routinely achieved by this method, bringing its detection to a “single” cell level. In certain instances, this collaborative immunoassay configuration can be further applied to investigate protein interactions and activations.

Data set [5] concerns the target T1, c-Met (Homo sapiens, UniProt P08581). The data set is described as follows: c-Met activation in HGF-treated HCC827 cells (proximity assay). The conditions noted are these: HCC827 lung cancer cells, FIG. 4. Type of data set: cell-based.
Source text: as §3

Data set [6] has as its target T1, c-Met. The data set is described as follows: c-Met activation in HGF-treated A431 cells (proximity assay). The data set is classed as cell-based. As to conditions: A431 epidermoid carcinoma cells, FIG. 3. Here is the method: as §1, §2
Data set [7] has as its target T1, c-Met. The conditions noted are these: cited from earlier work.

T1 sequence (P08581 25-1390): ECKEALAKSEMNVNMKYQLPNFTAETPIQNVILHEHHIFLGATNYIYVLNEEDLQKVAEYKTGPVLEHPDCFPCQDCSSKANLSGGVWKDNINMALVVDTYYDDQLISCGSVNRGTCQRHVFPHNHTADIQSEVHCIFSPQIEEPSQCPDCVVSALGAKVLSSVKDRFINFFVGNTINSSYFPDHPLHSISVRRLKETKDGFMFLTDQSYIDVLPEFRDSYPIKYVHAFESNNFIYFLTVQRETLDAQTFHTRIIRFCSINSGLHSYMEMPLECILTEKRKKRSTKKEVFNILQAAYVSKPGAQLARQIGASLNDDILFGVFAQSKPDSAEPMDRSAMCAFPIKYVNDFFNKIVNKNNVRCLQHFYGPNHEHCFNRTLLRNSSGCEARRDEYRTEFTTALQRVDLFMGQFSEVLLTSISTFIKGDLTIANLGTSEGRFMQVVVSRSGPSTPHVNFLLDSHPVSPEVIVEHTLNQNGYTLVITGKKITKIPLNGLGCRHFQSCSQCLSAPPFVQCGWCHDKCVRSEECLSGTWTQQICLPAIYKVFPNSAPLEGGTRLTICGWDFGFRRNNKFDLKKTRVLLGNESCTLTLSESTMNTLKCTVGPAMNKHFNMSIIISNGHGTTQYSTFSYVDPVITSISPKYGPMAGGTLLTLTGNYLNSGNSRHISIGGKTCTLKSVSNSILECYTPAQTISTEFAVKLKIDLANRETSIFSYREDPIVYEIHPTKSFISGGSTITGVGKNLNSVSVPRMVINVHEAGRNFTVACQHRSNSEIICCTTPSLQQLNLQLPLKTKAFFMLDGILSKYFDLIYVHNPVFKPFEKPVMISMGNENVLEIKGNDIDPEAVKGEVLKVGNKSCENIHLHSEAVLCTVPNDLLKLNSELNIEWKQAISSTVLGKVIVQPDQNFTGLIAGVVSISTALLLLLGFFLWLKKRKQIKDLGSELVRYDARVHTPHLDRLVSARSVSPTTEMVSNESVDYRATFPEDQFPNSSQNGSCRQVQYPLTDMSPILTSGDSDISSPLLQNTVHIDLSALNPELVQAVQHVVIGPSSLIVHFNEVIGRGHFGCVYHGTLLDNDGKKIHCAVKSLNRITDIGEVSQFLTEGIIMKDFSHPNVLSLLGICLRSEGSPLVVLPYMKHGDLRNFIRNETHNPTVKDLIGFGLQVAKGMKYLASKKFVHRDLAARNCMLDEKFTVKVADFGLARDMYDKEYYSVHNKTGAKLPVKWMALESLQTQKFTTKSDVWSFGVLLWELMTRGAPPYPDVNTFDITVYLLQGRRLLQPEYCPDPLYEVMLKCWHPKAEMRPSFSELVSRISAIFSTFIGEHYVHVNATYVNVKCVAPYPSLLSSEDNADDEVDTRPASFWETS

Consider `CN(C[C@@H]1COCCO1)S(=O)(=O)Nc1ccc2ccc3ncc(-c4cnn(C)c4)cc3c(=O)c2c1` [MK-2461], for which, in data set [1], the tolerability entry is listed as “well tolerated”.

Turning to `Cn1cc(-c2ccc3nnc(Sc4ccc5ncccc5c4)n3n2)cn1` [SGX523], in the data set with human xenograft models, the antitumor activity entry is “potent antitumor activity” and the toxicity entry is recorded as “no overt toxicity”.

On to `COc1cc2c(Oc3ccc(NC(=O)C4(C(=O)Nc5ccc(F)cc5)CC4)cc3F)ccnc2cc1OCCCN1CCOCC1` [XL880], for which the “CYP450 substrate / inhibitor / inducer” value with CYP450 is listed as “substrate, but not an inhibitor or inducer”. Also, in [2], the oral bioavailability entry was “good”.

For the compound “HGF: c-Met ligand, hepatocyte growth factor, a multidomain glycoprotein”, the HER2 phosphorylation entry with HER2 [3] is given as “slightly decreased”; in the data set with HER2 [4], “not affected”. Also, the “increase of c-Met phosphorylation” value with c-Met [5] was “about 4 fold”. In the data set with c-Met [6], the c-Met phosphorylation result is given as “stimulated”.

For the compound “MetMAb: humanized, monovalent, antagonistic anti-c-Met antibody derived from the agonistic monoclonal antibody 5D5”, the “binding to c-Met” value with c-Met [7] is “high affinity”.

These data come from patent US10473640B2, “Drug selection for gastric cancer therapy using antibody-based arrays” (Société des Produits Nestlé S.A., priority 2006, dated 2019).
